Source: patent US20250179125A1, “Alpha-sheet Polypeptides and Their Use” (University of Washington, priority 2021, published 2025)
Bridge positions count the residues as written; N and C are the ends. Square brackets hold non-standard residues; d marks the D form. Peptide text beside a SMILES is read from it. I, II: the chains in the order shown.

What was measured:
[1] = target: T1, Aβ42 (Homo sapiens, UniProt P05067); format: biochemical; details: 7500.0
T1 construct: Remove Aβ42 film(s) from −80° C
Experimental: Peptides were co-incubated with 75 μM Aβ in PBS aggregation buffer and monitored for β-sheet formation via ThT fluorescence over time. In each case, AB alone (ie Aβ aggregating in PBS without any inhibitor) was run as the standard control and used for calculating % inhibition by the following equation:
Importantly, each value had its corresponding ‘blank’ subtracted from the raw data, ie: End Inhibitor value=Raw value at the end of the assay-value for peptide alone in PBS at the given concentration.
The ‘blank’ values never exceeded more than 2× starting Aβ value to ensure that overcorrection is not the source of efficacy in data processing-end Aβ value was on average 20× starting Aβ value. Peptide concentration was varied while Aβ concentration remained fixed to investigate the potency of the designs at equal- and sub-stoichiometric ratios of AP: Aβ (ratios investigated include 1:1, 1:10, and 1:100). […]
Inhibition of Abeta aggregation was assessed in our standard ThT assay and the results can be compared to those in the table comparing different peptides in their monomeric and dimeric forms with 10-fold excess of Abeta.
Aβ aggregation and fibril formation, as well as inhibition experiments with α-sheet peptides, were monitored via ThT fluorescence according to the procedure, as follows. […]

[2] = system: E. coli UTI89 WT biofilms; test: Biofilm ThT assay in live E. coli UTI89 WT; format: cell-based; details: 48 h growth, dimers 1-8 μM, monomers double
Experimental: FIG. 2. Protocol to test inhibition of biofilm amyloid formation in live E. coli. Amyloid formation is assessed through a ThT assay like that used with Abeta and IAPP above. In addition, inhibition of amyloid disrupts the biofilm, leading to an increase in planktonic free-floating bacteria cells, which are then susceptible to antibiotics.
(§1) FIG. 4(a-b). Inhibition of amyloid formation by alpha-sheet designs in live E. coli clinical isolates. […] The concentrations are provided for the dimers, but the P1 and AP5 monomers were double that concentration to provide the same number of monomer units for comparison of the designs (ex. where it says 5 μM applied AP5, it was actually 10 μM). cNFU=corrected, normalized fluorescence units, where normalized signals were corrected by the nonspecific ThT fluorescence of E. coli UTI89 ΔcsgA biofilms. (b) Synthetic α-sheet peptides AP193 and AP195 decreased the ThT fluorescence of E. coli GERB319 biofilms, a clinical UTI isolate with resistance to gentamicin and ciprofloxacin (the dimeric peptides were added at 8 μM and AP5 and P1 were 16 μM to provide the same monomer equivalents). The unstructured control peptide P1 had no effect when applied at the same concentration. […]
Overnight cultures were grown in LB medium for ˜18 h. […] Peptide stocks were dissolved in water and concentrations were determined by Nanodrop™ (Thermo Scientific; Waltham, MA). […]

[3] = system: curli amyloid fibril formation in live E. coli; test: TEM of curli amyloid fibril formation in E. coli biofilms; format: cell-based; details: equimolar concentrations
Experimental: FIG. 3(a-c).TEM images reveal extensive curli amyloid fibril formation in (a) peptide-free biofilms and biofilms grown in the presence of (c) P1, but not those grown in the presence of (b) AP195 dimer (Scale bars=2 μm). P1 and AP195 were added at equimolar concentrations. AP195 is an α-sheet peptide and P1 is a random coil control.
The random coil peptide control (P1) had no effect.

[4] = system: E. coli GERB319 biofilms; test: Biofilm ThT assay in clinical isolate E. coli GERB319; format: cell-based; details: dimeric peptides 8 μM, AP5 and P1 16 μM
Experimental: as §1
Overnight cultures were grown in LB medium for ˜18 h. […] Peptide stocks were dissolved in water and concentrations were determined by Nanodrop™ (Thermo Scientific; Waltham, MA). […] Planktonic cells were spun down and resuspended in PBS, and the optical density of both planktonic and rinse samples was determined at 600 nm to estimate cell densities. […] 100 μL of each biofilm suspension was then transferred to a black-walled, clear-bottom 96 well plate for measurements in a plate reader (PerkinElmer; Waltham, MA). […]

T1 sequence (P05067 672-713 limits assumed): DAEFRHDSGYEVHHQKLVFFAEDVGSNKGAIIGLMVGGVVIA

Row | Molecule | % Inhibition 1:10 (AP peptide:Abeta42) [1] | amyloid content in biofilms, ThT fluorescence (cNFU) [2] | curli amyloid fibril formation (TEM) [3] | ThT fluorescence of biofilms [4]
1 | CSCC[C@H](NC(=O)[C@@H](CCC(=O)O)NC(=O)CNC(=O)[C@@H](CCCNC(=N)N)NC(C)=O)C(=O)N[C@H](CC(N)=O)C(=O)N[C@@H](CC(C)C)C(=O)N[C@H](CO)C(=O)N[C@@H](Cc1c[nH]c2ccccc12)C(=O)N[C@H](CCSC)C(=O)N[C@H](CC(N)=O)C(=O)N[C@H](CCC(=O)O)C(=O)N[C@H](Cc1ccc(O)cc1)C(=O)N[C@H](Cc1ccc(O)cc1)C(=O)NCC(=O)N[C@H](Cc1c[nH]c2ccccc12)C(=O)N[C@H](C(=O)N[C@H](CCSC)C(=O)N[C@@H](CC(N)=O)C(=O)N[C@H](CCSC)C(=O)N[C@@H](CCCCN)C(=O)N[C@H](CS)C(=O)NCC(=O)N[C@H](CCCNC(=N)N)C(N)=O)[C@@H](C)O [AP527m, Ac-rGeMnLsWmneyyGwTmNmKcGr-NH2] (Ac-[dR]G[dE]M[dN]L[dS]W[dM][dN][dE][dY][dY]G[dW]T[dM]N[dM]K[dC]G[dR]-NH2) | 14% | – | – | –
2 | I: Ac-RGN[dW]N[dE]S[dK]MNEYSGW[dM]L[dM]C[dT]MGR-NH2 / II: Ac-RGN[dW]N[dE]S[dK]MNEYSGW[dM]L[dM]C[dT]MGR-NH2 (disulfide I:19-II:19) [AP500d, Ac-RGNwNeSkMNEYSGWmLmCtMGR-NH2] | – | dose-dependent reduction | inhibition of fibril formation | significant decrease
3 | I: Ac-[dR]G[dE]M[dN]L[dS]W[dM][dN][dE][dY][dY]G[dW]T[dM]N[dM]K[dC]G[dR]-NH2 / II: Ac-[dR]G[dE]M[dN]L[dS]W[dM][dN][dE][dY][dY]G[dW]T[dM]N[dM]K[dC]G[dR]-NH2 (disulfide I:21-II:21) [AP527d, Ac-rGeMnLsWmneyyGwTmNmKcGr-NH2] | 96% | – | – | –
